# From PubChem BioAssay AID1963983 (Molecular Pharmacology Branch, DTP, NCI, 2024)
# System: 186277-243-T-J2-PDC multi-cell spheroid viability
# Assay: Anticancer human tumor 186277-243-T-J2-PDC patient-derived colon adenocarcinoma cell line growth inhibition [PI3K]
# Conditions: for IC50: curve of first compound; for viability, T/C: stronger effect = lower value
# How it was run: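 Targeted small molecules plus PI3K inhibitors, half-log dose series from Cmax (default top 10 microM), were applied to heterotypic spheroids of cancer cells with HUVEC and MSCs. Viability indicated growth inhibition.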
# [1] = second compound 0.0316 µM, first compound 0.0316 µM
# [2] = second compound 0.0316 µM, first compound 0.1 µM
# [3] = second compound 0.0316 µM, first compound 0.316 µM
# [4] = second compound 0.0316 µM, first compound 1 µM
# [5] = second compound 0.0316 µM, first compound 3.16 µM
# [6] = second compound 0.0316 µM, first compound 10 µM
# [7] = second compound 0.1 µM, first compound 0.0316 µM
# [8] = second compound 0.1 µM, first compound 0.1 µM
# [9] = second compound 0.1 µM, first compound 0.316 µM
# [10] = second compound 0.1 µM, first compound 1 µM
# [11] = second compound 0.1 µM, first compound 3.16 µM
# [12] = second compound 0.1 µM, first compound 10 µM
# [13] = second compound 0.316 µM, first compound 0.0316 µM
# [14] = second compound 0.316 µM, first compound 0.1 µM
# [15] = second compound 0.316 µM, first compound 0.316 µM
# [16] = second compound 0.316 µM, first compound 1 µM
# [17] = second compound 0.316 µM, first compound 3.16 µM
# [18] = second compound 0.316 µM, first compound 10 µM
# [19] = second compound 1 µM, first compound 0.0316 µM
# [20] = second compound 1 µM, first compound 0.1 µM
# [21] = second compound 1 µM, first compound 0.316 µM
# [22] = second compound 1 µM, first compound 1 µM
# [23] = second compound 1 µM, first compound 3.16 µM
# [24] = second compound 1 µM, first compound 10 µM
# 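Also: spheroids exposed to compounds for seven days before viability reading.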
# 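For viability, T/C in this document: 100% = DMSO vehicle control viability.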
compound,measurement,setting,value
C#Cc1c(F)ccc2cc(O)cc(-c3ncc4c(N5CC6CCC(C5)N6)nc(OCC56CCCN5CC(F)C6)nc4c3F)c12 (centres undefined) + Cc1nc(NC(=O)N2CCCC2C(N)=O)sc1-c1ccnc(C(C)(C)C(F)(F)F)c1,IC50,second compound 0.0316 µM,74.4 nM
same,IC50,second compound 0.1 µM,46.8 nM
same,IC50,second compound 0.316 µM,< 31.6 nM
same,IC50,second compound 1 µM,< 31.6 nM
same,IC50,second compound 3.16 µM,< 31.6 nM
same,IC50,second compound 10 µM,< 31.6 nM
same,"viability, T/C",[1],84.8%
same,"viability, T/C",[2],37.5%
same,"viability, T/C",[3],20%
same,"viability, T/C",[4],13.5%
same,"viability, T/C",[5],10.9%
same,"viability, T/C",[6],9.63%
same,"viability, T/C",[7],60.6%
same,"viability, T/C",[8],29.4%
same,"viability, T/C",[9],15.1%
same,"viability, T/C",[10],11.4%
same,"viability, T/C",[11],8.35%
same,"viability, T/C",[12],7.01%
same,"viability, T/C",[13],30.4%
same,"viability, T/C",[14],15.5%
same,"viability, T/C",[15],7.34%
same,"viability, T/C",[16],12.6%
same,"viability, T/C",[17],6.32%
same,"viability, T/C",[18],6.56%
same,"viability, T/C",[19],17.2%
same,"viability, T/C",[20],9.55%
same,"viability, T/C",[21],10.3%
same,"viability, T/C",[22],6.06%
same,"viability, T/C",[23],4.61%
same,"viability, T/C",[24],1.79%
same,"viability, T/C","second compound 3.16 µM, first compound 0.0316 µM",12.9%
same,"viability, T/C","second compound 3.16 µM, first compound 0.1 µM",5.57%
same,"viability, T/C","second compound 3.16 µM, first compound 0.316 µM",3.63%
same,"viability, T/C","second compound 3.16 µM, first compound 1 µM",4.54%
same,"viability, T/C","second compound 3.16 µM, first compound 3.16 µM",3.29%
same,"viability, T/C","second compound 3.16 µM, first compound 10 µM",1.25%
same,"viability, T/C","second compound 10 µM, first compound 0.0316 µM",3.63%
same,"viability, T/C","second compound 10 µM, first compound 0.1 µM",3.77%
same,"viability, T/C","second compound 10 µM, first compound 0.316 µM",2.79%
same,"viability, T/C","second compound 10 µM, first compound 1 µM",2%
same,"viability, T/C","second compound 10 µM, first compound 3.16 µM",0.83%
same,"viability, T/C","second compound 10 µM, first compound 10 µM",0.22%
CC(Cn1ccc(-c2ccc(C#N)c(Cl)c2)n1)NC(=O)c1cc(C(C)O)[nH]n1 (centres undefined) + COc1c(OCCCN2CCOCC2)ccc2c3n(c(=NC(=O)c4cnc(N)nc4)nc12)CCN3,IC50,second compound 0.00316 µM,> 10000 nM
same,IC50,second compound 0.01 µM,> 10000 nM
same,IC50,second compound 0.0316 µM,> 10000 nM
same,IC50,second compound 0.1 µM,< 31.6 nM
same,IC50,second compound 0.316 µM,< 31.6 nM
same,IC50,second compound 1 µM,< 31.6 nM
same,"viability, T/C","second compound 0.00316 µM, first compound 0.0316 µM",94.2%
same,"viability, T/C","second compound 0.00316 µM, first compound 0.1 µM",92.1%
same,"viability, T/C","second compound 0.00316 µM, first compound 0.316 µM",101%
same,"viability, T/C","second compound 0.00316 µM, first compound 1 µM",105%
same,"viability, T/C","second compound 0.00316 µM, first compound 3.16 µM",116%
same,"viability, T/C","second compound 0.00316 µM, first compound 10 µM",86.9%
same,"viability, T/C","second compound 0.01 µM, first compound 0.0316 µM",99.2%
same,"viability, T/C","second compound 0.01 µM, first compound 0.1 µM",100%
same,"viability, T/C","second compound 0.01 µM, first compound 0.316 µM",101%
same,"viability, T/C","second compound 0.01 µM, first compound 1 µM",108%
same,"viability, T/C","second compound 0.01 µM, first compound 3.16 µM",93.3%
same,"viability, T/C","second compound 0.01 µM, first compound 10 µM",90.1%
same,"viability, T/C",[1],74.7%
same,"viability, T/C",[2],74.9%
same,"viability, T/C",[3],69.2%
same,"viability, T/C",[4],70.9%
same,"viability, T/C",[5],75.5%
same,"viability, T/C",[6],58%
same,"viability, T/C",[7],16.7%
same,"viability, T/C",[8],17.3%
same,"viability, T/C",[9],17.4%
same,"viability, T/C",[10],15.9%
same,"viability, T/C",[11],19%
same,"viability, T/C",[12],17%
same,"viability, T/C",[13],6.31%
same,"viability, T/C",[14],6.68%
same,"viability, T/C",[15],3.61%
same,"viability, T/C",[16],6.24%
same,"viability, T/C",[17],6.1%
same,"viability, T/C",[18],4.81%
same,"viability, T/C",[19],3.61%
same,"viability, T/C",[20],3.8%
same,"viability, T/C",[21],2.93%
same,"viability, T/C",[22],2.25%
same,"viability, T/C",[23],3.36%
same,"viability, T/C",[24],2.45%
